# Source: PMC9226319, “Peripherally restricted transthyretin-based delivery system for probes and therapeutics avoiding opioid-related side effects” (Nature Communications, 2022)
# Several values for one entry are separate records, joined by “and”; a condition that tells them apart may be missing. Equal entries are not always repeated. Where two headings read alike, the source gives them in different places.
# Assays:
# [1] = biological target: purified human TTR (Homo sapiens, UniProt P02766); experiment: Fluorescence polarization (FP) binding assay, ligands to TTR in buffer
# [2] = biological target: TTR in human serum (Homo sapiens, UniProt P02766); experiment: TTR serum fluorescent probe exclusion (FPE) selectivity assay; format: binding; details: ligand 10 µM; for %FPE probe fluorescence: human serum, replicates
# [3] = biological target: human mu-opioid receptors (Homo sapiens, UniProt P35372); experiment: biochemical; format: binding
# [4] = system: male Sprague-Dawley rats; experiment: Gastrointestinal (GI) transit (charcoal meal) assays; format: in vivo, rat; details: rat, in vivo
# [5] = system: male Sprague-Dawley rats; details: rat, in vivo
# [6] = rat, single IV bolus 4.84 µmol/kg
# [7] = rat, single SC dose 16 µmol/kg
# [8] = in vivo; details: male, Sprague Dawley, rat, iv, 4.84 umol/kg
# [9] = in vivo; details: male, Sprague Dawley, rat, sc, 16 umol/kg
# Sequence of human mu-opioid receptors (P35372 whole entry): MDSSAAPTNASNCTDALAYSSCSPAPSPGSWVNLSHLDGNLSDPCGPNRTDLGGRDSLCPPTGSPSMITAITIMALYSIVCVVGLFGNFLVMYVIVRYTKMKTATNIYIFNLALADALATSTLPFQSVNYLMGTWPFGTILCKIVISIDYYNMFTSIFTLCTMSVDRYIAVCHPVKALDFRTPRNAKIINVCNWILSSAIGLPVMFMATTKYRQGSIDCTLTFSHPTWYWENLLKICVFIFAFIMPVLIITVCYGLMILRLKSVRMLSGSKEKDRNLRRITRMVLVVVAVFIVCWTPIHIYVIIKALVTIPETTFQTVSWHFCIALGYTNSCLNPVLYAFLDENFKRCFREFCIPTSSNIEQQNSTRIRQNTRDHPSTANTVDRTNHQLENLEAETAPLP
smiles,measurement,setting,value
C=CCN1CC[C@]23c4c5ccc(O)c4O[C@H]2[C@@H](OCc2cn(CCOCCOCCNCCCCCCOc4cc(OCCCc6c(C)n[nH]c6C)cc(C(=O)O)c4)nn2)CC[C@@]3(O)[C@H]1C5 [AG10-L1-Nal],Kd,[1],485 nM
same,% Fluorescence polarization (mean),[1]; log [nM] inhibitor 0.990,100.000%
same,% Fluorescence polarization (mean),[1]; log [nM] inhibitor 1.291,101.730%
same,% Fluorescence polarization (mean),[1]; log [nM] inhibitor 1.592,105.820%
same,% Fluorescence polarization (mean),[1]; log [nM] inhibitor 1.893,101.210%
same,% Fluorescence polarization (mean),[1]; log [nM] inhibitor 2.194,93.370%
same,% Fluorescence polarization (mean),[1]; log [nM] inhibitor 2.495,87.150%
same,% Fluorescence polarization (mean),[1]; log [nM] inhibitor 2.796,78.760%
same,% Fluorescence polarization (mean),[1]; log [nM] inhibitor 3.097,63.020%
same,% Fluorescence polarization (mean),[1]; log [nM] inhibitor 3.398,50.120%
same,% Fluorescence polarization (mean),[1]; log [nM] inhibitor 3.699,44.570%
same,% Fluorescence polarization (mean),[1]; log [nM] inhibitor 4.000,22.560%
same,% Fluorescence polarization (mean),[1]; log [nM] inhibitor […],0.000%
same,% TTR occupancy in human serum,"[2]; FPE probe 3.6 µM, 3 h reading relative to probe alone, text mean ± s.d., table replicates",71.5 ± 1.8% and 70.26% and 71.49% and 74.04% and 70.09%
same,%FPE probe fluorescence,[2]; time 0.000 h,0.000%
same,%FPE probe fluorescence,[2]; time 0.083 h,1.080% and 0.767% and -1.456% and -0.892%
same,%FPE probe fluorescence,[2]; time 0.250 h,2.570% and 0.301% and -1.690% and -0.400%
same,%FPE probe fluorescence,[2]; time 0.500 h,1.410% and 3.016% and 1.843% and 4.013%
same,%FPE probe fluorescence,[2]; time 1.000 h,5.261% and 6.236% and 4.568% and 2.982%
same,%FPE probe fluorescence,[2]; time 1.250 h,9.024% and 8.732% and 5.446% and 7.822%
same,%FPE probe fluorescence,[2]; time 1.500 h,10.681% and 11.389% and 3.787% and 9.124%
same,%FPE probe fluorescence,[2]; time 1.750 h,16.590% and 14.034% and 12.392% and 15.982%
same,%FPE probe fluorescence,[2]; time 2.000 h,16.797% and 16.410% and 12.993% and 18.679%
same,%FPE probe fluorescence,[2]; time 2.250 h,24.164% and 18.098% and 17.162% and 21.660%
same,%FPE probe fluorescence,[2]; time 2.500 h,24.735% and 22.591% and 22.580% and 23.970%
same,%FPE probe fluorescence,[2]; time 2.750 h,27.729% and 25.808% and 22.823% and 27.770%
same,%FPE probe fluorescence,[2]; time 3.000 h,29.742% and 28.511% and 25.959% and 29.908%
same,%FPE probe fluorescence,[2]; time 3.500 h,34.408% and 33.995% and 32.949% and 35.412%
same,%FPE probe fluorescence,[2]; time 3.750 h,36.701% and 36.516% and 34.676% and 37.256%
same,%FPE probe fluorescence,[2]; time 4.000 h,39.055% and 39.875% and 38.359% and 40.118%
same,%FPE probe fluorescence,[2]; time 4.250 h,42.939% and 41.758% and 38.579% and 41.416%
same,%FPE probe fluorescence,[2]; time 4.500 h,43.175% and 42.158% and 39.564% and 43.974%
same,%FPE probe fluorescence,[2]; time 4.750 h,49.116% and 47.668% and 46.875% and 46.250%
same,%FPE probe fluorescence,[2]; time 5.000 h,48.320% and 48.257% and 45.947% and 47.487%
same,%FPE probe fluorescence,[2]; time 5.250 h,49.797% and 50.503% and 44.600% and 50.002%
same,%FPE probe fluorescence,[2]; time 5.500 h,51.668% and 52.681% and 50.017% and 50.897%
same,%FPE probe fluorescence,[2]; time 5.750 h,52.829% and 53.093% and 50.389% and 55.989%
same,%FPE probe fluorescence,[2]; time 6.000 h,53.052% and 53.791% and 49.880% and 55.657%
same,fold decrease in mu-opioid receptor binding affinity when TTR was present,[3],9 fold
same,fold higher mu-opioid receptor binding affinity than naloxegol,[3],3.5 fold
same,fold lower mu-opioid receptor binding affinity than naloxone,[3],3 fold
same,Ki,[3]; binding affinity to mu-opioid receptor (Ki),0.81 nM
same,Ki,[3]; binding affinity to mu-opioid receptor (Ki) in the presence of TTR,7.4 nM
"CN1CC[C@]23c4c5ccc(O)c4O[C@H]2[C@@H](O)C=C[C@H]3[C@H]1C5 [Morphine, reference compound]",GI transit as % of saline group,[4]; sc,18.81% and 20.1% and 15.01% and 14.94% and 19.9%
same,hot plate latency,[5]; iv,60 s
same,hot plate latency,[5]; sc,57.0 ± 2.5 s and 60 s
same,"hot plate latency, compound alone",[5]; sc,60 s
"C=CCN1CC[C@]23c4c5ccc(O)c4O[C@H]2C(=O)CC[C@@]3(O)[C@H]1C5 [Naloxone, reference compound]",k,[6],0.81 ± 0.13 h⁻¹
same,k,[7],1.03 ± 0.1 h⁻¹
same,AUC(0-inf),[8],1.46 ± 0.257 µM·h
same,Vd,[8],1.23 ± 0.42 L/kg
same,clearance,[8],56.5 mL/min/kg
same,half-life,[8],52.2 ± 7.8 min
same,AUC(0-inf),[9],1.76 ± 0.237 µM·h
same,CL/F,[9],152 mL/min/kg
same,Vd/F,[9],8.94 ± 2.08 L/kg
same,half-life,[9],40.2 ± 4.2 min
"COc1ccc2c3c1O[C@H]1C(=O)CC[C@@]4(O)[C@@H](C2)N(C)CC[C@]314 [Oxycodone, reference compound]",GI transit (% of vehicle),[4],18.7 ± 3.0%
same,constipation (GI transit),[4],did not result in significant analgesia or constipation
same,GI transit (% of vehicle),[4]; sc,8.0 ± 2.7%
same,GI transit as % of vehicle group,[4]; sc,4.72% and 11.93% and 8.19% and 6.37% and 8.96%
same,k,[7],0.9 ± 0.12 h⁻¹
same,analgesia (hot plate),[5],did not result in significant analgesia or constipation
same,analgesic effect 1 hour after ICV dosing,[5],no analgesic effect
same,hot plate latency,[5]; sc,56.8 ± 3.8 s
same,AUC(0-inf),[9],4.85 ± 0.676 µM·h
same,CL/F,[9],55.3 mL/min/kg
same,half-life,[9],46.8 ± 5.4 min
